Experimental data from the supplement of paper PMC10307832.

Experiments:
Test in all cases: relative viability (nuclei count vs DMSO), 5 days (fraction); higher = more cells survive
[1] = tested on: NCI-H1734
Outline: (§1)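 Five library-drug doses in √10 steps were combined with a fixed anchor-drug dose, or a single drug was given alone, by pin tool to lung cancer cell lines in 1536-well plates the day after seeding. Nuclei were stained and counted after 5 days. Relative viability is the nuclei count in treated wells over that in vehicle wells, taken as the median of duplicate plates.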

[2] = tested on: NCI-H2085
Outline: as §1

[3] = tested on: COR-L23
Outline: as §1

[4] = tested on: NCI-H1437
Outline: as §1

[5] = tested on: NCI-H1651
Outline: as §1

[6] = tested on: SK-LU-1
Outline: as §1

[7] = tested on: CAL-12T
Outline: as §1

[8] = tested on: NCI-H358
Outline: as §1

[9] = tested on: LOU-NH91
Outline: as §1

[10] = tested on: NCI-H1650
Outline: as §1

[11] = tested on: LU99A
Outline: as §1

[12] = tested on: NCI-H1975
Outline: as §1

[13] = tested on: NCI-H1355
Outline: as §1

[14] = tested on: NCI-H2342
Outline: as §1

[15] = tested on: BEN
Outline: as §1

[16] = tested on: NCI-H1793
Outline: as §1

[17] = tested on: NCI-H460
Outline: as §1

[18] = tested on: NCI-H838
Outline: as §1

[19] = tested on: HCC-366
Outline: as §1

[20] = tested on: NCI-H441
Outline: as §1

[21] = tested on: NCI-H2023
Outline: as §1

CC(=O)O[C@@]12CO[C@@H]1C[C@H](O)[C@@]1(C)C(=O)[C@H](O)C3=C(C)[C@@H](OC(=O)[C@H](O)[C@@H](NC(=O)OC(C)(C)C)c4ccccc4)C[C@@](O)([C@@H](OC(=O)c4ccccc4)[C@H]21)C3(C)C [Docetaxel] + O=C(c1cc(Cc2n[nH]c(=O)c3ccccc23)ccc1F)N1CCN(C(=O)C2CC2)CC1 [Olaparib] (partner 8 µM)
relative viability ([1]; first compound 0.0002 µM): 0.498 | relative viability ([1]; first compound 0.000632 µM): 0.506 | relative viability ([1]; first compound 0.002 µM): 0.292 | relative viability ([1]; first compound 0.006325 µM): 0.324 | relative viability ([1]; first compound 0.02 µM): 0.196 | relative viability ([2]; first compound 0.0002 µM): 0.725 | relative viability ([2]; first compound 0.000632 µM): 0.826 | relative viability ([2]; first compound 0.002 µM): 0.747 | relative viability ([2]; first compound 0.006325 µM): 0.431 | relative viability ([2]; first compound 0.02 µM): 0.298 | relative viability ([3]; first compound 0.0002 µM): 0.307 | relative viability ([3]; first compound 0.000632 µM): 0.312 | relative viability ([3]; first compound 0.002 µM): 0.161 | relative viability ([3]; first compound 0.006325 µM): 0.134 | relative viability ([3]; first compound 0.02 µM): 0.0881 | relative viability ([4]; first compound 0.0002 µM): 0.613 | relative viability ([4]; first compound 0.000632 µM): 0.442 | relative viability ([4]; first compound 0.002 µM): 0.384 | relative viability ([4]; first compound 0.006325 µM): 0.269 | relative viability ([4]; first compound 0.02 µM): 0.177 | relative viability ([5]; first compound 0.0002 µM): 0.188 | relative viability ([5]; first compound 0.000632 µM): 0.206 | relative viability ([5]; first compound 0.002 µM): 0.177 | relative viability ([5]; first compound 0.006325 µM): 0.137 | relative viability ([6]; first compound 0.0002 µM): 0.479 | relative viability ([6]; first compound 0.000632 µM): 0.349 | relative viability ([6]; first compound 0.002 µM): 0.315 | relative viability ([6]; first compound 0.006325 µM): 0.256 | relative viability ([6]; first compound 0.02 µM): 0.167 | relative viability ([7]; first compound 0.0002 µM): 0.591 | relative viability ([7]; first compound 0.000632 µM): 0.392 | relative viability ([7]; first compound 0.002 µM): 0.253 | relative viability ([7]; first compound 0.006325 µM): 0.263 | relative viability ([7]; first compound 0.02 µM): 0.173 | relative viability ([8]; first compound 0.0002 µM): 0.551 | relative viability ([8]; first compound 0.000632 µM): 0.251 | relative viability ([8]; first compound 0.002 µM): 0.136 | relative viability ([8]; first compound 0.006325 µM): 0.147 | relative viability ([8]; first compound 0.02 µM): 0.095 | relative viability ([9]; first compound 0.0002 µM): 0.915 | relative viability ([9]; first compound 0.000632 µM): 0.839 | relative viability ([9]; first compound 0.002 µM): 0.567 | relative viability ([9]; first compound 0.006325 µM): 0.396 | relative viability ([9]; first compound 0.02 µM): 0.315 | relative viability ([10]; first compound 0.0002 µM): 0.64 | relative viability ([10]; first compound 0.000632 µM): 0.545 | relative viability ([10]; first compound 0.002 µM): 0.218 | relative viability ([10]; first compound 0.006325 µM): 0.241 | relative viability ([10]; first compound 0.02 µM): 0.162 | relative viability ([11]; first compound 0.0002 µM): 0.259 | relative viability ([11]; first compound 0.000632 µM): 0.201 | relative viability ([11]; first compound 0.002 µM): 0.209 | relative viability ([11]; first compound 0.006325 µM): 0.23 | relative viability ([11]; first compound 0.02 µM): 0.163 | relative viability ([12]; first compound 0.0002 µM): 0.748 | relative viability ([12]; first compound 0.000632 µM): 0.448 | relative viability ([12]; first compound 0.002 µM): 0.239 | relative viability ([12]; first compound 0.006325 µM): 0.187 | relative viability ([12]; first compound 0.02 µM): 0.147 | relative viability ([13]; first compound 0.0002 µM): 0.732 | relative viability ([13]; first compound 0.000632 µM): 0.533 | relative viability ([13]; first compound 0.002 µM): 0.353 | relative viability ([13]; first compound 0.006325 µM): 0.203 | relative viability ([13]; first compound 0.02 µM): 0.164 | relative viability ([14]; first compound 0.0002 µM): 0.525 | relative viability ([14]; first compound 0.000632 µM): 0.456 | relative viability ([14]; first compound 0.002 µM): 0.312 | relative viability ([14]; first compound 0.006325 µM): 0.348 | relative viability ([14]; first compound 0.02 µM): 0.301 | relative viability ([15]; first compound 0.0002 µM): 1.11 | relative viability ([15]; first compound 0.000632 µM): 1.06 | relative viability ([15]; first compound 0.002 µM): 0.514 | relative viability ([15]; first compound 0.006325 µM): 0.357 | relative viability ([15]; first compound 0.02 µM): 0.275 | relative viability ([16]; first compound 0.0002 µM): 0.8 | relative viability ([16]; first compound 0.000632 µM): 0.517 | relative viability ([16]; first compound 0.002 µM): 0.287 | relative viability ([16]; first compound 0.006325 µM): 0.293 | relative viability ([17]; first compound 0.0002 µM): 0.373 | relative viability ([17]; first compound 0.000632 µM): 0.31 | relative viability ([17]; first compound 0.002 µM): 0.0608 | relative viability ([17]; first compound 0.006325 µM): 0.0428 | relative viability ([17]; first compound 0.02 µM): 0.0276 | relative viability ([18]; first compound 0.0002 µM): 0.716 | relative viability ([18]; first compound 0.000632 µM): 0.368 | relative viability ([18]; first compound 0.002 µM): 0.268 | relative viability ([18]; first compound 0.006325 µM): 0.137 | relative viability ([18]; first compound 0.02 µM): 0.106 | relative viability ([19]; first compound 0.0002 µM): 0.245 | relative viability ([19]; first compound 0.000632 µM): 0.115 | relative viability ([19]; first compound 0.002 µM): 0.0486 | relative viability ([19]; first compound 0.006325 µM): 0.0381 | relative viability ([19]; first compound 0.02 µM): 0.0133 | relative viability ([20]; first compound 0.0002 µM): 0.446 | relative viability ([20]; first compound 0.000632 µM): 0.324 | relative viability ([20]; first compound 0.002 µM): 0.223 | relative viability ([20]; first compound 0.006325 µM): 0.158 | relative viability ([20]; first compound 0.02 µM): 0.161 | relative viability ([21]; first compound 0.0002 µM): 0.437 | relative viability ([21]; first compound 0.000632 µM): 0.313 | relative viability ([21]; first compound 0.002 µM): 0.114 | relative viability ([21]; first compound 0.006325 µM): 0.114 | relative viability ([21]; first compound 0.02 µM): 0.0533
